# Laboratory results reported in article PMC5681660, “Reduced hepatitis B and D viral entry using clinically applied drugs as novel inhibitors of the bile acid transporter NTCP” (Scientific Reports, 2017).
# Where a name gives a salt, the structure may show the parent alone. Read-outs that look alike come from different tables or passages of the source.
# Target: T1, human NTCP (Homo sapiens, UniProt Q14973)
# T1 sequence (Q14973 1-349): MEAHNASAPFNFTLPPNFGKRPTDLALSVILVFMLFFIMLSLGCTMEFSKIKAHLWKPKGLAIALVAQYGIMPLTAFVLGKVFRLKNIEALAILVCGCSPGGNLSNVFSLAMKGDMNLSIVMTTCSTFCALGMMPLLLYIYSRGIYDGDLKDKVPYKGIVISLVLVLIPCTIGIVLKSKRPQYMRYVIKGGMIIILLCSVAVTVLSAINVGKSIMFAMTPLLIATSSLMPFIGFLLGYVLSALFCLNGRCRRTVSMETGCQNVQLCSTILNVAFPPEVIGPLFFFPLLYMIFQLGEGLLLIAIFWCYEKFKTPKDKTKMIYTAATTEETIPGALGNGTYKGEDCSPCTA
# Assay: Screening taurocholate uptake assay (96-well, [14C]taurocholate, 10 µM drug)
# [1] = ranking over the functional and the binding screening assay
# [2] = screening taurocholate uptake, 10 µM drug
# [3] = combined ranking of functional and binding screening assays
# [4] = screening taurocholate uptake, 10 µM drug, B-score
Compound,Ranking score [1],B-score functional assay [2],Ranking score [3],B-score functional assay,B-score functional assay [4]
O=c1[nH]c(=O)n([C@H]2C[C@H](O)[C@@H](CO)O2)cc1I [Idoxuridine],91.1921,-4.488,–,–,–
Cc1[nH]cnc1CN1CCc2c(c3ccccc3n2C)C1=O [Alosetron hydrochloride],–,-0.019,562.783,–,–
COc1cc2c(c(OC)c1OC)-c1ccc(OC)c(=O)cc1[C@@H](NC(C)=O)CC2 [Colchicine],–,–,–,-0.631,–
C[C@]12CC[C@@H]3c4ccc(O)cc4CC[C@H]3[C@@H]1C[C@@H](O)[C@@H]2O [Estriol],–,0.325,589.644,–,–
C[N+]1(C)CCCC(OC(=O)C(O)(c2ccccc2)c2ccccc2)C1 (stereo not drawn) [Mepenzolate bromide],–,1.196,545.72,–,–
O=[N+]([O-])O[C@@H]1CO[C@H]2[C@@H]1OC[C@@H]2O [Isosorbide mononitrate],252.589,-0.263,–,–,–
CCN(C(C)=O)c1cccc(-c2ccnc3c(C#N)cnn23)c1 [Zaleplon],–,1.229,584.018,–,–
COC(=O)C1=C(C)NC(C)=C(C(=O)OC(C)C)C1c1cccc2nonc12 (stereo not drawn) [Isradipine],185.591,-0.707,–,–,–
Cc1cccc(C)c1NC(=O)C1CCCCN1C (stereo not drawn) [Mepivacaine hydrochloride],206.427,-0.918,–,–,–
C#CCN(C)[C@H](C)Cc1ccccc1 [Selegiline hydrochloride],–,-1.141,462.99,–,–
Clc1ccc(CCC(Cn2ccnc2)Sc2c(Cl)cccc2Cl)cc1 (stereo not drawn) [Butoconazole nitrate],196.25,-3.692,–,–,–
OCCN1CCN(CCCN2c3ccccc3Sc3ccc(C(F)(F)F)cc32)CC1 [Fluphenazine dihydrochloride],99.0152,-4.102,–,–,–
COc1ccc([C@@H]2CC(=O)c3c(O)cc(O[C@@H]4O[C@H](CO[C@@H]5O[C@@H](C)[C@H](O)[C@@H](O)[C@H]5O)[C@@H](O)[C@H](O)[C@H]4O)cc3O2)cc1O [Hesperidin],–,0.91,580.078,–,–
CC(C)(Oc1ccc(C2CC2(Cl)Cl)cc1)C(=O)O (stereo not drawn) [Ciprofibrate],–,0.025,539.316,–,–
CC(=O)Oc1cccc2c1C(=O)c1c(OC(C)=O)cc(C(=O)O)cc1C2=O [Diacerein],199.08,-4.175,–,–,–
Nc1c2ccccc2nc2ccccc12 [Aminacrine],–,-0.079,608.609,–,–
CC(=O)SCC(Cc1ccccc1)C(=O)NCC(=O)OCc1ccccc1 (stereo not drawn) [Racecadotril],264.726,-1.398,–,–,–
CC(=O)Oc1ccccc1C(=O)O [Acetylsalicylic acid],–,–,1161.38,–,2.017
NS(=O)(=O)c1cc(C(=O)O)c(NCc2ccco2)cc1Cl [Furosemide],–,–,1165.28,–,1.457
C[C@H](O)C(=O)Nc1c(I)c(C(=O)NC(CO)CO)c(I)c(C(=O)NC(CO)CO)c1I [Iopamidol],105.925,-2.672,–,–,–

Compound,Ranking score [1],B-score functional assay [2],Ranking score [3],B-score functional assay,B-score functional assay [4]
Nc1nc(NC2CC2)c2ncn([C@H]3C=C[C@@H](CO)C3)c2n1 [Abacavir Sulfate],–,–,1184.97,–,2.371
NC(=NCc1ccccc1)NC(=O)c1nc(Cl)c(N)nc1N [Benzamil hydrochloride],–,-0.089,519.299,–,–
CCC1(C)CC(=O)NC(=O)C1 [Bemegride],76.1315,-2.979,–,–,–
NCc1ccccc1CC(=O)N[C@@H]1C(=O)N2C(C(=O)O)=C(CSc3nnnn3CC(=O)O)CS[C@H]12 [Ceforanide],–,–,1237.77,–,3.778
CN1CCCC(CC2c3ccccc3Sc3ccccc32)C1 (stereo not drawn) [Metixene hydrochloride],–,0.08,516.538,–,–
CCCc1nc(C)c2c(=O)[nH]c(-c3cc(S(=O)(=O)N4CCN(CC)CC4)ccc3OCC)nn12 [Vardenafil],–,-0.039,546.31,–,–
C[C@@H]1CN(c2c(F)c(N)c3c(=O)c(C(=O)O)cn(C4CC4)c3c2F)C[C@H](C)N1 [Sparfloxacin],231.849,-2.411,–,–,–
CC(C)[N+](C)(CCOC(=O)C1c2ccccc2Oc2ccccc21)C(C)C [Propantheline bromide],–,-0.131,472.136,–,–
CC(COc1ccccc1)N(CCCl)Cc1ccccc1 (stereo not drawn) [Phenoxybenzamine hydrochloride],229.8,-0.06,–,–,–
CC(=O)NC1CCSC1=O (racemic) [N-Acetyl-DL-homocysteine Thiolactone],–,0.096,563.625,–,–
C=C1C(=O)O[C@H]2[C@H]1CC/C(C)=C/CC[C@@]1(C)O[C@@H]21 [Parthenolide],–,2.985,607.546,–,–
N=C(N)N/N=C/c1c(Cl)cccc1Cl [Guanabenz acetate],–,-1.531,467.541,–,–
C=C1/C(=C\C=C2/CCC[C@]3(C)[C@@H]([C@H](C)/C=C/[C@@H](O)C4CC4)CC[C@@H]23)C[C@@H](O)C[C@@H]1O [Calcipotriene],164.682,-4.364,–,–,–
CN(C(=O)C(Cl)Cl)c1ccc(OC(=O)c2ccco2)cc1 [Diloxanide furoate],–,–,1159.98,–,1.688
CN1CCN(c2c(F)cc3c(=O)c(C(=O)O)cn4c3c2SCC4)CC1 [Rufloxacin],–,-0.276,471.137,–,–
"CNCC(O)c1ccc(O)cc1 (racemic) [(+,-)-Synephrine]",–,-0.397,485.351,–,–
NC[C@H]1O[C@H](O[C@H]2[C@H](O)[C@@H](O[C@H]3O[C@H](CO)[C@@H](O)[C@H](N)[C@H]3O)[C@H](N)C[C@@H]2N)[C@H](N)C[C@@H]1O [Tobramycin],–,-0.213,498.515,–,–
CC(Oc1c(Cl)cccc1Cl)C1=NCCN1 (stereo not drawn) [Lofexidine],–,-0.33,633.467,–,–
CCN(C)C(=O)Oc1cccc([C@H](C)N(C)C)c1 [Rivastigmine],–,-0.006,642.937,–,–
C#C[C@]1(O)CC[C@H]2[C@@H]3CCc4cc(OC)ccc4[C@H]3CC[C@@]21C [Ethynylestradiol 3-methyl ether],–,-0.011,552.584,–,–

Compound,Ranking score [1],B-score functional assay [2],Ranking score [3],B-score functional assay,B-score functional assay [4]
N#Cc1ccc(C(c2ccc(C#N)cc2)n2cncn2)cc1 [Letrozole],–,1.169,610.1,–,–
COc1cc2nc(N3CCN(C(=O)C4CCCO4)CC3)nc(N)c2cc1OC (stereo not drawn) [Terazosin hydrochloride],–,-0.092,497.689,–,–
CN1CC2c3ccccc3Oc3ccc(Cl)cc3C2C1 (stereo not drawn) [Asenapine maleate],127.491,-0.488,–,–,–
CN1CCN(C(=O)OC2c3nccnc3C(=O)N2c2ccc(Cl)cn2)CC1 (stereo not drawn) [Zopiclone],176.746,-0.919,–,–,–
N[C@@H](C(=O)N[C@@H]1C(=O)N2C(C(=O)O)=C(Cl)CC[C@H]12)c1ccccc1 [Loracarbef],–,-0.686,611.882,–,–
Cc1ccc(S(=O)(=O)NC(=O)NN2CC3CCCC3C2)cc1 (stereo not drawn) [Gliclazide],246.057,-0.222,–,–,–
CC1(C)S[C@@H]2[C@H](NC(=O)[C@H](N)c3ccc(O)cc3)C(=O)N2[C@H]1C(=O)O [Amoxicillin],277.274,-0.114,–,–,–
"O.O=C1C(O)=C(O)C(=O)C(O)=C1O [Tetrahydroxy-1,4-quinone hydrate]",–,-0.017,603.838,–,–
Colistin sulfate,–,-0.917,–,–,–
C[C@@](Cc1ccc(O)c(O)c1)(NN)C(=O)O [Carbidopa],–,0.686,597.675,–,–
C=CC[C@]1(O)CC[C@H]2[C@@H]3CCC4=CC(=O)CCC4=C3C=C[C@@]21C [Altrenogest],–,0.332,607.028,–,–
COc1ccc(/C=C/C(=O)Nc2ccccc2C(=O)O)cc1OC [Tranilast],106.883,-4.178,–,–,–
N#Cc1cc(NC(=O)C(=O)O)c(Cl)c(NC(=O)C(=O)O)c1 [Lodoxamide],–,-0.138,609.015,–,–
CN1[C@@H]2CC[C@H]1C[C@@H](OC(c1ccccc1)c1ccccc1)C2 [Benztropine mesylate],–,-0.008,529.655,–,–
O=C1NCN(c2ccccc2)C12CCN(CCCC(c1ccc(F)cc1)c1ccc(F)cc1)CC2 [Fluspirilen],–,0.19,517.364,–,–
CCCC1O[C@@H]2C[C@H]3[C@@H]4CCC5=CC(=O)C=C[C@]5(C)[C@H]4[C@@H](O)C[C@]3(C)[C@]2(C(=O)CO)O1 (stereo partly drawn) [Budesonide],–,-0.64,628.462,–,–
Cc1cccc(N(C)C(=S)Oc2ccc3ccccc3c2)c1 [Tolnaftate],–,6.72,550.781,–,–
COc1cc(C)nc(-n2nc(C)cc2OC)n1 [Epirizole],209.705,0.634,–,–,–
